{"source": "patent US12448388B2", "about": "“PRMT5 inhibitors and uses thereof” (Gilead Sciences, Inc., priority 2023, dated 2025)", "data": [{"system": "HCT116 MTAP-deleted cell lines", "test": "Cell viability assay (CellTiter-Glo, 7 days), HCT116 MTAP-deleted", "assay_type": "cell-based", "conditions": "Homo sapiens, HCT-116; cell viability assay, HCT116 MTAP-deleted; class symbols; read-out: CC50", "how_it_was_run": "(§1)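 CC50 values come from 7-day CellTiter-Glo viability measurements on cells exposed to a dose range of PRMT5 inhibitors dispensed from DMSO stocks.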", "units": {"CC50": "µM"}, "values": [{"smiles": "CN(C(=O)c1cc2c(cc1F)nc(N)c1cncn12)[C@@H]1COc2cc([C@@H]3C[C@H]3c3ccccc3)ccc21", "note": "(racemic) [Ff-473, Trans-4-amino-7-fluoro-N-methyl-N-((3S)-6-(2-phenylcyclopropyl)-2,3-dihydrobenzofuran-3-yl)imidazo[1,5-a]quinoxaline-8-carboxamide]", "CC50": "< 0.1"}, {"smiles": "Cc1ncc2c(N)nc3cnc(C(=O)N4CCC[C@@H]5Oc6cc(S(F)(F)(F)(F)F)ccc6[C@@H]54)cc3n12", "note": "[Fg-43, (4-amino-1-methylimidazo[1,5-a]pyrido[3,4-e]pyrazin-8-yl)((4aS,9bS)-7-(pentafluoro-16-sulfaneyl)-3,4,4a,9b-tetrahydrobenzofuro[3,2-b]pyridin-1(2H)-yl)methanone]", "CC50": "< 0.1"}, {"smiles": "Nc1nc2cc(F)c(C(=O)N3CCOC[C@@H]3c3ccc(OC(F)(F)F)cc3)cc2n2cncc12", "note": "(single isomer, unassigned) [Ff-555]", "CC50": "< 0.1"}, {"smiles": "CC(C)c1ccc2c(c1)OC[C@H]2N(C)C(=O)c1cc2c(cc1F)nc(N)c1cncn12", "note": "[Ff-479, (S)-4-amino-7-fluoro-N-(6-isopropyl-2,3-dihydrobenzofuran-3-yl)-N-methylimidazo[1,5-a]quinoxaline-8-carboxamide]", "CC50": "< 0.1"}, {"smiles": "Cc1c(N(Cc2ccc(C(F)(F)F)cc2F)C(=O)c2cc3c(cc2F)nc(N)c2cncn23)cnn1C", "note": "[Ff-414, 4-amino-N-(1,5-dimethylpyrazol-4-yl)-7-fluoro-N-[[2-fluoro-4-(trifluoromethyl)phenyl]methyl]imidazo[1,5-a]quinoxaline-8-carboxamide]", "CC50": "< 0.1"}, {"smiles": "CN(C(=O)c1cc2c(cc1F)nc(N)c1cncn12)[C@@H]1COc2cc(C(F)F)c(Cl)cc21", "note": "[Ff-653, (S)-4-amino-N-(5-chloro-6-(difluoromethyl)-2,3-dihydrobenzofuran-3-yl)-7-fluoro-N-methylimidazo[1,5-a]quinoxaline-8-carboxamide]", "CC50": "< 0.1"}]}, {"system": "HCT116 MTAP-deleted cell lines", "test": "Cell viability assay (CellTiter-Glo, 7 days), HCT116 MTAP-deleted", "assay_type": "cell-based", "conditions": "Homo sapiens, HCT-116; cell viability, HCT116 MTAP-deleted; class symbols; read-out: CC50", "how_it_was_run": "as §1", "units": {"CC50": "µM"}, "values": [{"smiles": "Cc1ncn2c1c(N)nc1cc(F)c(C(=O)N3CCC[C@@H]4OCc5nc(C(F)(F)F)ccc5[C@@H]43)cc12", "note": "[Ff-358, (4-amino-7-fluoro-3-methylimidazo[1,5-a]quinoxalin-8-yl)((4aS,10bS)-8-(trifluoromethyl)-2,3,4,4a,6,10b-hexahydro-1H-pyrano[3,2-b:5,4-b′]dipyridin-1-yl)methanone]", "CC50": "< 0.1"}, {"smiles": "CN(C(=O)c1cc2c(cc1F)nc(N)c1cncn12)[C@@H]1COc2c1ccc(C(F)(F)F)c2F", "note": "[Ff-354, (S)-4-amino-7-fluoro-N-(7-fluoro-6-(trifluoromethyl)-2,3-dihydrobenzofuran-3-yl)-N-methylimidazo[1,5-a]quinoxaline-8-carboxamide]", "CC50": "< 0.1"}, {"smiles": "CN(C(=O)c1cc2c(cc1F)nc(N)c1cncn12)[C@H]1c2ccc(Br)cc2[C@@H]2C[C@@H]21", "note": "[Ff-330, 4-amino-N-((1aR,6R,6aS)-3-bromo-1,1a,6,6a-tetrahydrocyclopropa[a]inden-6-yl)-7-fluoro-N-methylimidazo[1,5-a]quinoxaline-8-carboxamide]", "CC50": "0.1 to 1"}, {"smiles": "Nc1nc2cc(F)c(C(=O)N3CCCC[C@@H]3c3ccc(C(F)(F)F)cc3F)cc2n2cncc12", "note": "(single isomer, unassigned) [Ff-151]", "CC50": "< 0.1"}, {"smiles": "CC(C)N(Cc1ccc(F)cc1Cl)C(=O)c1ccc2nc(N)c3cncn3c2c1", "note": "[Ff-72, 4-amino-N-(2-chloro-4-fluorobenzyl)-N-isopropylimidazo[1,5-a]quinoxaline-8-carboxamide]", "CC50": "0.1 to 1"}, {"smiles": "COCc1cc(C(F)(F)F)ccc1CN(C)C(=O)c1ccc2nc(N)c3cncn3c2c1", "note": "[Ff-126, 4-amino-N-(2-(methoxymethyl)-4-(trifluoromethyl)benzyl)-N-methylimidazo[1,5-a]quinoxaline-8-carboxamide]", "CC50": "0.1 to 1"}, {"smiles": "Nc1nc2cc(F)c(C(=O)N(Cc3ccc(C(F)(F)F)cn3)C34COC(C3)C4)cc2n2cncc12", "note": "[Ff-268, 4-amino-N-(2-oxabicyclo[2.1.1]hexan-4-yl)-7-fluoro-N-((5-(trifluoromethyl)pyridin-2-yl)methyl)imidazo[1,5-a]quinoxaline-8-carboxamide]", "CC50": "< 0.1"}]}]}
